Several values for one entry are separate records, joined by “and”; a condition that tells them apart may be missing. Equal values may be shown once.
Tests used:
PARS1 WT = molecular target: T1, PARS1 WT (Homo sapiens, UniProt P07814); assay: Microscale thermophoresis (MST), PARS1 WT; assay type: binding; conditions: for Fraction bound: single replicates
T1 construct: His‐PARS1 (1001–1,512 aa); made in house; host or cells: Escherichia coli
T1 sequence (P07814 1001-1512 limits assumed): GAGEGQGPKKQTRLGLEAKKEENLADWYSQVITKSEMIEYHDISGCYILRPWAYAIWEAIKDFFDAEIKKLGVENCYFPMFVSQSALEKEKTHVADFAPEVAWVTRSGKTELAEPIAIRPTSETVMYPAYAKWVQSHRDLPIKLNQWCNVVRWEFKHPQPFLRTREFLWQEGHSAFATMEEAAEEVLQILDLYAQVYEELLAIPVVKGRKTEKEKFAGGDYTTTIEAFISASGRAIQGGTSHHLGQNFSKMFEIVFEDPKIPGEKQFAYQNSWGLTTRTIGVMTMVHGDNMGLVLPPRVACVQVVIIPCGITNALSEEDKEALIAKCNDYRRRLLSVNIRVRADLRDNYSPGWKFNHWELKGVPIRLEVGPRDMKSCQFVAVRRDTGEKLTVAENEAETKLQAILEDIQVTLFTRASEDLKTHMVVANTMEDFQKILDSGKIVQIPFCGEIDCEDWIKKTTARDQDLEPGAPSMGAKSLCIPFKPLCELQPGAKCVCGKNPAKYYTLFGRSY

WI‐26 VA4 cells = assay: Immunoblot of cellular protein levels with different proline content; assay type: cell-based, human; conditions: Fig 2A
Description: The levels of proteins were determined by immunoblot assay. […] The lowest concentration at which protein levels started to decrease was normalized by IC50 values for collagen level and used as the y‐axis value. […] The slope and R^2 value were calculated using GraphPad Prism 7.0. […] The activation of the TGF‐β pathway was determined by monitoring the phosphorylation of SMAD2. Immunoblot images are representative of three biologically independent experiments. • The band intensities of the immunoblot images in (C) were quantified using ImageJ (n = 3; One‐way ANOVA; *P < 0.05, **P < 0.01, ***P < 0.001; mean ± SEM). Source data are available online for this figure.

[1] = system: WI‐26 VA4 cells stably expressing EV (empty vector); assay: Collagen ELISA in cells stably expressing EV

With O[C@H]1CCCN[C@@H]1CCCn1cnc2c(Cl)c(Cl)ccc21 [DWN12088] the “Fraction bound, average” value (PARS1 WT; Dose 30.5176 nM) was -0.2054, the Fraction bound (PARS1 WT; Dose 30.5176 nM) was -0.1847 and -0.2552 and -0.1762 and the “Fraction bound, average” value (PARS1 WT; Dose 61.0352 nM) was -0.1331. The Fraction bound (PARS1 WT; Dose 61.0352 nM) was -0.1271 and -0.1077 and -0.1644, the “Fraction bound, average” value (PARS1 WT; Dose 122.07 nM) was -0.0578 and the Fraction bound (PARS1 WT; Dose 122.07 nM) was 0.0166 and -0.0399 and -0.1500. The “Fraction bound, average” value (PARS1 WT; Dose 244.141 nM) was 0.0543, the Fraction bound (PARS1 WT; Dose 244.141 nM) was -0.0356 and 0.0851 and 0.1134 and the “Fraction bound, average” value (PARS1 WT; Dose 488.281 nM) was -0.0068. For the same molecule, the Fraction bound (PARS1 WT; Dose 488.281 nM) was 0.0147 and -0.0499 and 0.0148, the “Fraction bound, average” value (PARS1 WT; Dose 976.562 nM) was 0.1887 and the Fraction bound (PARS1 WT; Dose 976.562 nM) was 0.1745 and 0.1271 and 0.2645. The “Fraction bound, average” value (PARS1 WT; Dose 1953.12 nM) was 0.3166, the Fraction bound (PARS1 WT; Dose 1953.12 nM) was 0.2796 and 0.3408 and 0.3294 and the “Fraction bound, average” value (PARS1 WT; Dose 3906.25 nM) was 0.1823. The Fraction bound (PARS1 WT; Dose 3906.25 nM) was 0.1409 and 0.1539 and 0.2519, the “Fraction bound, average” value (PARS1 WT; Dose 7812.5 nM) was 0.3895 and the Fraction bound (PARS1 WT; Dose 7812.5 nM) was 0.3262 and 0.4199 and 0.4224. For the same molecule, the “Fraction bound, average” value (PARS1 WT; Dose 15625 nM) was 0.4633, the Fraction bound (PARS1 WT; Dose 15625 nM) was 0.4748 and 0.4733 and 0.4418 and the “Fraction bound, average” value (PARS1 WT; Dose 31250 nM) was 0.5523. For the same molecule, the Fraction bound (PARS1 WT; Dose 31250 nM) was 0.4690 and 0.5423 and 0.6454, the “Fraction bound, average” value (PARS1 WT; Dose 62500 nM) was 0.5522 and the Fraction bound (PARS1 WT; Dose 62500 nM) was 0.5673 and 0.5892 and 0.5000. The “Fraction bound, average” value (PARS1 WT; Dose 125000 nM) was 0.7606, the Fraction bound (PARS1 WT; Dose 125000 nM) was 0.7942 and 0.7665 and 0.7210 and the “Fraction bound, average” value (PARS1 WT; Dose 250000 nM) was 0.9107. For the same molecule, the Fraction bound (PARS1 WT; Dose 250000 nM) was 0.9397 and 0.8612 and 0.9313, the “Fraction bound, average” value (PARS1 WT; Dose 500000 nM) was 1.0322 and the Fraction bound (PARS1 WT; Dose 500000 nM) was 1.1218 and 1.1050 and 0.8698. The “Fraction bound, average” value (PARS1 WT; Dose 1000000 nM) was 1.1170, the Fraction bound (PARS1 WT; Dose 1000000 nM) was 1.1447 and 1.1049 and 1.1015 and the Kd (PARS1 WT; Kd (Fit Results), His-PARS1 WT, doses of the sheet in nM) was 20500 nM. For the same molecule, the Kd (PARS1 WT; Kd, MST, in the presence of ATP) was 20000 nM, the Kd (PARS1 WT; Kd, MST, in the presence of proline 30 μM) was 79000 nM and the Kd (PARS1 WT; Kd, MST, in the presence of proline 120 μM) was 108000 nM. The Kd (PARS1 WT; Kd, WT, 5 mM ATP, mean ± SD, unit inferred) was 20500 ± 8580 nM, the “effective dose for decreasing general proteins (SMAD2, AIMP2, AMPKα, cyclin D1) compared with COL1A1” value (WI‐26 VA4 cells) was “about 10 times” and the “CC50/collagen IC50” value ([1]; EV cells) was 12.55. For the same molecule, the “Relative (CC50)/(collagen IC50)” value ([1]; EV cells (reference)) was 1.00, the IC50 ([1]; Homo sapiens, WI26VA4, read-out: IC50, collagen level) was 1.91 µM and the “Collagen level, average” value ([1]; WI-26 VA4 EV, 30 nM, average of 4 experiments) was 106.29 % of control.

Reference: paper PMC10331583, “Control of fibrosis with enhanced safety via asymmetric inhibition of prolyl‐tRNA synthetase 1” (EMBO Molecular Medicine, 2023)
